# Laboratory results from a melting point compilation (Tetko et al.; mined from patent text by program, amines drawn as free bases though some values may be those of a salt).
row,melting point,Compound
1,> 250 °C,CC(C)(C)OC(=O)NC1Cc2cccc(c2)CC(C(=O)O)NC(=O)CNC1=O (stereo not given)
2,189 to 191 °C,NC(=O)C(Sc1ccccc1)c1cccc(C(=O)c2ccc(Cl)cc2)c1N (stereo not given)
3,208 to 210 °C,COc1ccc(S(=O)(=O)Nc2cccnc2Nc2ccc(OC(=O)c3ccccc3)cc2)cc1
4,180 to 182 °C,O=C1Cc2ccccc2C(c2ccccc2Cl)N1 (stereo not given)
5,215 °C,O=C1NCN=C(c2ccccc2)c2ccccc21
6,115 to 120 °C,CC(C)(C)OC(=O)NC(=O)C(N)OCc1ccccc1 (stereo not given)
7,53 to 55 °C,CC(C)(C)OC(=O)N1CO[C@@](O[Si](C)(C)C)(C(F)(F)F)[C@@H]1Cc1ccccc1
8,220 to 222 °C,O=C(Nc1ccc(C(=O)N2Cc3cccn3Cc3ccccc32)cc1)c1sc2ccccc2c1Cl
9,130 °C,COC=C(C(=O)OC)c1csc2ccc(COc3ccccc3)cc12
10,198 to 200 °C,O=C1[C@H]2CCC[C@H]2N(C(=O)CBr)c2ccccc2N1Cc1ccccc1F (relative stereo)
11,149 to 151 °C,CC(C)(C)OC(=O)N1CC=C(c2ccc3oc(-c4ccc(S(C)(=O)=O)cc4F)nc3c2)CC1
12,166 to 167 °C,O=C(O)Cc1ccc2c(c1)C(=O)Cc1ccccc1S2
13,221 °C,CC(C)(CO)NS(=O)(=O)c1cccc(-c2cc(-c3nc(-c4ccc(C(F)(F)F)cc4)cc(C(F)(F)F)n3)ccn2)c1
14,168 °C,Cc1ccc(CN(C)CCOc2ccc(NC(=O)c3cccc4c(=O)c5ccccc5[nH]c34)cc2)cc1
15,171 °C,CS(=O)(=O)Cc1c(C(=O)NN2CCCCC2)nn(-c2ccc(Cl)cc2Cl)c1-c1ccc(Cl)cc1
16,180 to 183 °C,Cc1cc(Nc2ccccc2C(=O)O)n(Cc2cccnc2)n1

row,melting point,Compound
1,108 to 111 °C,CCOC(=O)Cc1c(C(=O)OCC)c(C)c(C(=O)c2ccc(C)cc2)n1C
2,126 to 127 °C,CC(C)(C)c1ccc2c(c1O)C(=O)c1c(O)cccc1C2
3,216 to 217 °C,O=c1[nH]c2sccc2c(=O)n1CCN1CCN(c2ccccc2Cl)CC1
4,263 °C,Cc1c(F)cccc1Cc1c(-c2ccccc2)c2ccccn2c1C(=O)N1CCN(C(=O)OC(C)(C)C)CC1
5,127 to 128 °C,COc1cc(COc2nn(-c3ccccc3)cc2CO)ccc1OCc1nc(-c2ccco2)oc1C
6,174 °C,CSC(C(N)=O)c1cc(Cl)cc(C(=O)c2ccccc2)c1N (stereo not given)
7,81 to 82 °C,COc1cccc2c1CCC(COS(=O)(=O)c1ccc(C)cc1)C2 (stereo not given)
8,203 to 205 °C,CC1Cc2c(N3CCC(NC(=O)OC(C)(C)C)C3)c(F)cc3c(=O)[nH]c(=O)n1c23 (stereo not given)
9,108 to 109 °C,C=C1CC(COc2cccc3ccc(C)nc23)(c2ccccc2)OC1=O (stereo not given)
10,157 to 162 °C,CCCCC(CC(=O)Nc1cc(C(N)=O)ccc1C(C)(C)C)c1ccc(OCCCOC)cc1OC (stereo not given)
11,168 to 169 °C,COc1cc2c(c3c1OC(C)(C)C3)C(c1cccc(N(C(N)=O)c3cccnc3)c1)=NC(C)(C)C2
12,100 °C,Cc1cc(-n2ccnc2)c2cccc(OCc3c(Cl)ccc(S(=O)(=O)N4CCC[C@H]4C(=O)NCC4CCN(CC(=O)OC(C)(C)C)CC4)c3Cl)c2n1
13,83 to 85 °C,COc1ccc(C(=O)CSc2ccccc2)cc1
14,153 to 154 °C,O=C(O)c1ccc2nc3c(c(=O)n2c1)CCC3=Cc1ccccc1
15,143 to 144 °C,Cc1oc(-c2ccccc2)nc1COc1ccc2cc(C/C=C/O)oc2c1

# The next lines start with the compound.
row,Compound,melting point
1,COC1CC(n2cc(C=CBr)c(=O)n(C)c2=O)OC1CF (stereo not given),95 °C
2,CCOC(=O)C(=Cc1cccc([N+](=O)[O-])c1)C(=O)CCl,108 to 111 °C
3,Oc1ncc(-c2ccccc2Cl)cn1,232 to 233 °C
4,Cc1nc(C)c(C(O)=C(C#N)c2nn(-c3ccccc3)nc2C)s1,117 to 118 °C
5,N#Cc1ccc(OCCCn2ccnc2)cc1,60 to 61.5 °C
6,O=C(CCC1CCNCC1)c1ccc2c(c1)NCCCC2,104 to 107 °C
7,CC(=O)N1CCC(c2ccc(S(N)(=O)=O)cc2)CC1,196 to 197 °C
8,O=C1C2=CSCCN2C(=O)N1c1ccc(Cl)cc1,155 to 158 °C
9,COc1c(C2=NC(C)(C)CO2)ccc(C2=NC(C)(C)CO2)c1OC,84.5 to 85.5 °C
10,CN(C)c1cccc(-c2nc3c(N[C@H]4[C@@H](C(N)=O)[C@@H]5C=C[C@H]4C5)ccnc3[nH]2)c1,200 to 204 °C
11,COc1ccc(COC(=O)Nc2cc(-n3cccn3)nc(-c3ccco3)n2)cc1OC,148 °C
12,Fc1ccc2[nH]cc(Cc3ccncc3)c2c1,141 to 142 °C
13,Cc1sc(NS(=O)(=O)c2c(Cl)cc(Cl)cc2Cl)nc1CC(=O)N1CCOCC1,216 to 217 °C
14,CC1=CC(c2cccc(C(F)(F)F)c2)C2=C(CCCC2=O)N1 (stereo not given),184 to 185 °C
15,CCCCn1c(=O)c2c(ncn2S(=O)(=O)c2cccc([N+](=O)[O-])c2)n(CCCC)c1=O,178 to 179 °C
16,CCCCc1nc2ccccc2n1CCC(=O)O,177 to 178 °C
17,CC(C)C(NC(=O)c1ccc(C(=O)NCc2ccc(Cl)cc2)cc1)C(=O)N1CCCC1C(=O)NC(C(=O)C(F)(F)F)C(C)C (mixture of isomers),87 to 89 °C
18,CCC(=S)C1=C(C)NC2=C(C1)C(=O)c1ccccc12,240 °C
19,CN1C(=O)C(C)(C)N=C(c2ccccc2Cl)c2c1ccc(N)c2Br,188 to 189 °C
20,CNC(=O)c1cccc(C)c1Nc1nc(Nc2ccc3c(c2)C(=O)NCCC3)ncc1Cl,259 °C
21,CCC1CC2(C)C(O)CCC2C2CCc3cccc(O)c3C12 (stereo not given),155 to 157 °C
22,COCOc1c(CCO)c(OC)c(OCOC)c(CCCCCc2c(OC)c(OCOC)c(CCO)c(OC)c2OCOC)c1OC,68 to 70 °C
23,Cc1ccc(OP(Oc2ccc(C)cc2C(C)(C)C)Oc2ccc(C)cc2C(C)(C)C)c(C(C)(C)C)c1,114 to 115 °C

row,Compound,melting point
1,CNC(=O)Cc1cccc2ccoc12,138 to 142 °C
2,Oc1ccc2c(-c3ccc4c(O)cccc4c3)noc2c1,275 to 277 °C
3,CCCCCCOc1ccc(C2OCC(C(=O)O)CO2)cc1 (stereo not given),30 °C
4,CC(C)(C)c1nc(N)nc(C(C)(C)C)c1O,92 to 93 °C
5,COc1cc2c(cc1OC)CC(=O)NC=C2,234 to 237 °C
6,CCOc1ccc([N+](=O)[O-])c(NC23CC4CC(CC(C4)C2)C3)c1,147 °C
7,CC(C)C(OC(=O)NC(C)(Cc1ccccc1)C(=O)NC(Cc1ccc(O)cc1)C(=O)NCCCCCCCO)c1ccccc1 (stereo not given),70 to 76 °C
8,Cc1nc(-c2ccc(OCC(F)(F)C(F)F)cc2)sc1C(=O)O,167 to 168 °C
9,CC1(C)COc2cc(C(F)(F)F)ccc2C(O)(c2ccccn2)C1 (stereo not given),78 °C
10,COC(=O)c1cc(C)cnc1Cl,31 to 33 °C
11,C=C(C#N)CCC(=O)O,26.5 to 27 °C
12,O=Cc1cc(Br)c(Cl)cc1[N+](=O)[O-],81 to 82 °C
13,COC(=O)c1ccc(-c2nc(CCl)c(C)o2)cc1,130 to 131 °C
14,O=C1N[C@H](Cc2cccc(OCC(F)(F)F)c2)[C@H](c2ccc(F)cc2)O1 (racemic),148 to 149 °C
15,O=C(NNS(=O)(=O)c1ccccc1)c1ccc2c(c1)OCO2,156 to 158 °C
16,Cc1cc(C#N)cc(Oc2[nH]c(=O)[nH]c(=O)c2C(C)C)c1,272 to 275 °C
17,N#Cc1cc(Cn2nnc(C(N)=O)c2N)ccc1Cl,172 to 175 °C
18,O=c1ccn(CCCO)c(CO)c1O,138 to 139 °C
19,NC(=O)c1cccc(Cc2c[nH]cn2)c1O,198 °C
20,CC(C)CN(Cc1nnc(-c2ncn3c2CN(C)C(=O)c2c(Cl)cccc2-3)o1)CC(C)C,161 to 163 °C
21,Cc1cc(C)nc(NC(=O)Cc2cc(Br)sc2Br)c1,109 °C
22,CN(CC1=NC(=S)N=N1)C(COCc1cc(C(F)(F)F)cc(C(F)(F)F)c1)C(c1ccccc1)c1ccccc1 (stereo not given),192 to 194 °C
23,CN(C)C1CCc2c(c3ccccc3n2CCC(=O)O)C1 (stereo not given),106 to 108 °C

row,Compound,melting point
1,O=C(O)c1conc1-c1ccccc1,163 to 164 °C
2,CCCCc1nc2c(N)nc3ccccc3c2n1CCCNC(=O)NC1CCCCC1,200 to 201 °C
3,NC(=O)c1ccc(-c2ccc3nnn(Cc4ccc5ncccc5c4)c3n2)cc1F,198 to 200 °C
4,CCC(=O)c1c(SC)sc(C#N)c1CC,66 to 67 °C
5,C=Cc1c(C(=O)NC2CC2)nnn1-c1ccc(C(=O)NCC)cc1,162 °C
6,CCCc1ccc(S(=O)(=O)Nc2ccc3nc(C)c(C)nc3c2)cc1,198 to 199 °C
7,CS(=O)(=O)Nc1ccc(C2CCN(c3ccncc3)CC2)cc1,269 to 271 °C
8,CCOC(=O)NOC(=O)c1ccc(C(=O)ONC(=O)OCC)cc1,130 °C
9,CCCCn1c(C)nnc1SC(N)=O,112 to 114 °C
10,CC(C)(C)NC(=O)CP(=O)(O)O,163 to 165 °C
11,CCC1(C)CC(O)CC(C)(C)N1OC(C)(C)C#N (stereo not given),48 to 60 °C
12,FC(F)(F)c1ccc2c(Cl)nccc2n1,90 °C
13,CC[C@@H]1N(c2ccc(C#N)c(Cl)c2C)C(=O)C[C@]1(C)O,156 to 158 °C
14,CN(C)C(N)=C(C#N)C(N)=S,186 to 187 °C
15,O=C(O)C=CC1CC1(c1cccc(C(F)(F)F)c1)c1cccc(C(F)(F)F)c1 (stereo not given),147 to 148 °C
16,N#Cc1nc(F)c(F)c(N)c1Cl,190 to 192 °C
17,Cc1nnc(-c2ccc3occ(-c4ccc(S(=O)C(C)C)cc4)c3c2)o1 (stereo not given),157 to 158 °C
18,CC1(C)CC(=O)OC1CC(Cl)(Cl)Cl (stereo not given),56 to 58 °C
19,COc1ccc2cccc(C(O)CNC(C)=O)c2c1 (stereo not given),173 to 175 °C
20,Cc1ccc2c(c1)oc1c(C(=O)NC34CC5CC(CC(C5)C3)C4)nn(-c3ccc(Cl)cc3Cl)c12,210 to 212 °C
21,COc1cc(OC)nc(NC(=O)NS(=O)(=O)c2nccn2-c2ccccn2)n1,146 to 149 °C
22,Cc1cc(N2CCNCC2)ccc1NS(C)(=O)=O,79 to 81 °C
23,O=C(O)c1cn(-n2cnnc2)c2cc(F)c(F)cc2c1=O,270 °C
